Test results as given in patent publication US20220362353A1, “DRUG COMBINATION FOR PREVENTING OR TREATING IRRITABLE BOWEL SYNDROME” (GUANGZHOU CENTURY CLINICAL RESEARCH CO., LTD, priority 2019, published 2022).

Tests used:
[1] = test system: irritable bowel syndrome model animals; test: Abdominal withdrawal reflex (AWR) test after colorectal distension; format: in vivo, SD rats (Sprague-Dawley rats); details: for Abdominal withdrawal reflex scores of colorectal distension at different pressures (mean ± SD): 3 months old, after 1-month daily gavage, score 0-4
Procedure: In this example, the irritable bowel syndrome model was induced by daily applying colorectal distension as a stimulating factor to neonatal SD rats (Sprague-Dawley rats) from 8 days old to 21 days old. This model animal had visceral hypersensitivity of irritable bowel syndrome and without colonitis and mucosal injury. Colorectal distension stimulation was not given any more from 21 days old to 8 weeks old. A test drug or placebo was administered daily by gavage from 8 weeks old to 3 months old. On the 8 weeks old (before the beginning of the 1-month drug administration period) and about 3 months old (after the end of the 1-month drug administration period), behavioral and neural responses of rats to colorectal distention stimulation were tested by an abdominal wall withdrawal reflex test and an electromyography test. 8-day-old neonatal male SD rats with normal body weight were exposed to a 12:12 hr light-dark cycle. Every 12 neonatal rats and 1 adult female rat were co-bred with rat milk until 25 days old. Then every 4 neonatal rats were fed in the same cage, and they were allowed to eat and drink freely. The SD rats were randomly divided into a normal control group, a model group, a dosmalfate group, a lysozyme group, a first combination group (a dosage ratio of dosmalfate to lysozyme was 0.05:1), a second combination group (a dosage ratio of dosmalfate to lysozyme was 0.1:1), a third combination group (a dosage ratio of dosmalfate to lysozyme was 10:1), and a fourth combination group (a dosage ratio of dosmalfate to lysozyme was 20:1), and 12 animals were assigned to each group. Except for normal control group, colorectal distension (CRD) stimulation was applied to the rats in other groups every day from 8 days old to 21 days old to induce irritable bowel syndrome. The concrete operation method was as follows: a flexible balloon (with a polytetrafluoroethylene catheter; the balloon should be inflated overnight before the experiment so that it has better compliance) made of the fingers of surgical gloves, was smeared with vaseline, inserted from the anus of the rat to the colon and then fixed at the tail distanced away from the anus by 2 cm. The balloon was connected with a valve via the catheter, and the valve was additionally connected with a sphygmomanometer. Rats were placed in small plastic cages to restrict their turning and acclimatized for 30 minutes. The balloon was slowly inflated to 60 mm Hg with the sphygmomanometer, and deflated after stimulation for 20 seconds; the stimulation was repeated twice within 1 hour (with an interval of 30 minutes each time). Except for normal control group and model group, test drugs (wetted in 0.5% sodium carboxymethyl cellulose solution) were administrated to the rats in the other groups by gavage daily from 8 weeks old to 3 months old, and the dosage was 8 ml. The abdominal wall withdrawal reflex test was used to detect behavioral responses of rats to colorectal distension stimulation. This test was performed when rats in respective groups were 8 weeks old (before the start of the 1-month drug administration period) and 3 months old (after the end of the 1-month drug administration period). The rats were fasted overnight before undergoing the abdominal wall withdrawal reflex test, so as to reduce gastrointestinal contents. During the test, a flexible balloon (with a thin-walled polytetrafluoroethylene catheter; the balloon should be inflated overnight before the experiment so that it has better compliance) made of the fingers of surgical gloves, was smeared with vaseline and inserted from the anus of the rat by 7 cm to the colon and fixed at the caudal point by 2 cm distanced away from the anus. The balloon was connected with the valve via the catheter, and the valve was additionally connected with a sphygmomanometer. Rats were placed in small plastic cages to restrict their turning and acclimatized for 30 minutes. […]

[2] = test system: irritable bowel syndrome model animals; test: Electromyography (EMG) test of external oblique abdominal muscles after colorectal distension; format: in vivo, SD rats (Sprague-Dawley rats); details: for AUC (%) of EMG of colorectal distension at different pressures (mean ± SD): 3 months old, after 1-month daily gavage, normalized to average baseline amplitude (100%)
Procedure: In this example, the irritable bowel syndrome model was induced by daily applying colorectal distension as a stimulating factor to neonatal SD rats (Sprague-Dawley rats) from 8 days old to 21 days old. This model animal had visceral hypersensitivity of irritable bowel syndrome and without colonitis and mucosal injury. Colorectal distension stimulation was not given any more from 21 days old to 8 weeks old. A test drug or placebo was administered daily by gavage from 8 weeks old to 3 months old. On the 8 weeks old (before the beginning of the 1-month drug administration period) and about 3 months old (after the end of the 1-month drug administration period), behavioral and neural responses of rats to colorectal distention stimulation were tested by an abdominal wall withdrawal reflex test and an electromyography test. 8-day-old neonatal male SD rats with normal body weight were exposed to a 12:12 hr light-dark cycle. Every 12 neonatal rats and 1 adult female rat were co-bred with rat milk until 25 days old. Then every 4 neonatal rats were fed in the same cage, and they were allowed to eat and drink freely. The SD rats were randomly divided into a normal control group, a model group, a dosmalfate group, a lysozyme group, a first combination group (a dosage ratio of dosmalfate to lysozyme was 0.05:1), a second combination group (a dosage ratio of dosmalfate to lysozyme was 0.1:1), a third combination group (a dosage ratio of dosmalfate to lysozyme was 10:1), and a fourth combination group (a dosage ratio of dosmalfate to lysozyme was 20:1), and 12 animals were assigned to each group. Except for normal control group, colorectal distension (CRD) stimulation was applied to the rats in other groups every day from 8 days old to 21 days old to induce irritable bowel syndrome. The concrete operation method was as follows: a flexible balloon (with a polytetrafluoroethylene catheter; the balloon should be inflated overnight before the experiment so that it has better compliance) made of the fingers of surgical gloves, was smeared with vaseline, inserted from the anus of the rat to the colon and then fixed at the tail distanced away from the anus by 2 cm. The balloon was connected with a valve via the catheter, and the valve was additionally connected with a sphygmomanometer. Rats were placed in small plastic cages to restrict their turning and acclimatized for 30 minutes. The balloon was slowly inflated to 60 mm Hg with the sphygmomanometer, and deflated after stimulation for 20 seconds; the stimulation was repeated twice within 1 hour (with an interval of 30 minutes each time). Except for normal control group and model group, test drugs (wetted in 0.5% sodium carboxymethyl cellulose solution) were administrated to the rats in the other groups by gavage daily from 8 weeks old to 3 months old, and the dosage was 8 ml. The visceral hypersensitivity (neural response) of rats to colorectal distension was quantified by measuring the electromyographic activity of external oblique abdominal muscles. When the rats in each group were 3 months old (after the end of the 1-month drug administration period), they were subjected to abdominal wall withdrawal reflex test followed by EMG test after abdominal wall withdrawal reflex test. On the second day when 3-month-old rats in each group were subjected to abdominal wall withdrawal reflex test, an appropriate amount of pentobarbital solution (50 mg/ml) was injected into the abdominal cavities of the rats, and the rats were fully anesthetized. The hairs on the lower abdomen and the back of the neck were cut, a needle electrode (tungsten microelectrode) was implanted into the left side of the abdomen of the rat, fixed in the muscle layer of the external oblique abdominal muscle, and the electrode wire was crossed through the subcutaneous of the left side of the rat to a small incision at the rear neck and out of the small incision. […]

Substance	Abdominal withdrawal reflex scores of colorectal distension at different pressures (mean ± SD) ([1]; 20 mm Hg)	Abdominal withdrawal reflex scores of colorectal distension at different pressures (mean ± SD) ([1]; 40 mm Hg)	Abdominal withdrawal reflex scores of colorectal distension at different pressures (mean ± SD) ([1]; 60 mm Hg)	abdominal wall withdrawal reflex values compared with model group, in words ([1]; after administration)	AUC (%) of EMG of colorectal distension at different pressures (mean ± SD) ([2]; 20 mm Hg) [%]	AUC (%) of EMG of colorectal distension at different pressures (mean ± SD) ([2]; 40 mm Hg) [%]	AUC (%) of EMG of colorectal distension at different pressures (mean ± SD) ([2]; 60 mm Hg)	EMG test result compared with model group, in words ([2]; after administration)
Lysozyme	2.11 ± 0.33	2.69 ± 0.41	3.56 ± 0.36	no significant difference	303 ± 36	394 ± 60	601 ± 60 ^ %	no significant difference
diosmin heptadiene (bisulfate) aluminum complex [Dosmalfate, reference compound]	2.25 ± 0.45	2.56 ± 0.30	3.64 ± 0.30	–	332 ± 39	445 ± 99	644 ± 117 ^ %	–
